Experimental data as given in the NIST ThermoML archive (doi:10.1016/j.jct.2011.10.027).
Numbers after ± are expanded uncertainties.

Experiment: xn = mol fraction of the nth substance listed
Conditions: 101 kPa, Liquid, Vibrating tube method

CCCCN(CCCC)CCCC [tributylamine] + CCc1ccccc1
mass density [kg/m3]
Conditions	293.15 K	298.15 K	303.15 K	313.15 K	323.15 K	333.15 K
x1 = 0.0829	852.96 ± 0.24	848.66 ± 0.24	844.35 ± 0.24	835.7 ± 0.24	827 ± 0.24	818.22 ± 0.24
x1 = 0.1602	841.78 ± 0.24	837.56 ± 0.24	833.34 ± 0.24	824.84 ± 0.24	816.3 ± 0.24	807.68 ± 0.24
x1 = 0.2404	831.68 ± 0.24	827.53 ± 0.24	823.38 ± 0.24	815.04 ± 0.24	806.64 ± 0.24	798.19 ± 0.24
x1 = 0.3189	823 ± 0.24	818.92 ± 0.24	814.83 ± 0.24	806.62 ± 0.24	798.36 ± 0.24	790.04 ± 0.24
x1 = 0.3972	815.35 ± 0.24	811.33 ± 0.24	807.3 ± 0.24	799.2 ± 0.24	791.06 ± 0.24	782.85 ± 0.24
x1 = 0.4788	808.26 ± 0.24	804.3 ± 0.24	800.32 ± 0.24	792.33 ± 0.24	784.3 ± 0.24	776.21 ± 0.24
x1 = 0.572	801.08 ± 0.24	797.17 ± 0.24	793.25 ± 0.24	785.37 ± 0.24	777.45 ± 0.24	769.48 ± 0.24
x1 = 0.6382	796.47 ± 0.24	792.6 ± 0.24	788.71 ± 0.24	780.91 ± 0.24	773.07 ± 0.24	765.18 ± 0.24
x1 = 0.7192	791.35 ± 0.24	787.52 ± 0.24	783.67 ± 0.24	775.96 ± 0.24	768.2 ± 0.24	760.39 ± 0.24
x1 = 0.8022	786.64 ± 0.24	782.83 ± 0.24	779.02 ± 0.24	771.38 ± 0.24	763.69 ± 0.24	755.96 ± 0.24
x1 = 0.8765	782.75 ± 0.24	778.98 ± 0.24	775.21 ± 0.24	767.62 ± 0.24	760 ± 0.24	752.32 ± 0.24
x1 = 0.9556	778.92 ± 0.24	775.18 ± 0.24	771.44 ± 0.24	763.92 ± 0.24	756.36 ± 0.24	748.76 ± 0.24

CCCCN(CCCC)CCCC [tributylamine] + Cc1ccc(C)cc1
mass density [kg/m3]
Conditions	293.15 K	298.15 K	303.15 K	313.15 K	323.15 K	333.15 K
x1 = 0.0834	848.23 ± 0.24	843.97 ± 0.24	839.71 ± 0.24	831.14 ± 0.24	822.53 ± 0.24	813.86 ± 0.24
x1 = 0.1617	837.85 ± 0.24	833.67 ± 0.24	829.48 ± 0.24	821.06 ± 0.24	812.59 ± 0.24	804.05 ± 0.24
x1 = 0.2416	828.6 ± 0.24	824.47 ± 0.24	820.35 ± 0.24	812.06 ± 0.24	803.72 ± 0.24	795.32 ± 0.24
x1 = 0.3196	820.59 ± 0.24	816.53 ± 0.24	812.46 ± 0.24	804.29 ± 0.24	796.06 ± 0.24	787.79 ± 0.24
x1 = 0.3984	813.4 ± 0.2	809.38 ± 0.24	805.37 ± 0.24	797.3 ± 0.2	789.19 ± 0.24	781.03 ± 0.24
x1 = 0.482	806.6 ± 0.2	802.64 ± 0.24	798.67 ± 0.24	790.72 ± 0.24	782.71 ± 0.24	774.64 ± 0.24
x1 = 0.56	800.89 ± 0.24	796.97 ± 0.24	793.04 ± 0.24	785.17 ± 0.24	777.26 ± 0.24	769.29 ± 0.24
x1 = 0.633	796.02 ± 0.24	792.14 ± 0.24	788.26 ± 0.24	780.46 ± 0.24	772.62 ± 0.24	764.73 ± 0.24
x1 = 0.7229	790.59 ± 0.24	786.75 ± 0.24	782.91 ± 0.24	775.2 ± 0.24	767.45 ± 0.24	759.65 ± 0.24
x1 = 0.7717	787.86 ± 0.24	784.05 ± 0.24	780.24 ± 0.24	772.57 ± 0.24	764.86 ± 0.24	757.1 ± 0.24
x1 = 0.878	782.45 ± 0.24	778.68 ± 0.24	774.9 ± 0.24	767.33 ± 0.24	759.71 ± 0.24	752.04 ± 0.24
x1 = 0.9458	779.3 ± 0.24	775.56 ± 0.24	771.81 ± 0.24	764.28 ± 0.24	756.72 ± 0.24	749.1 ± 0.24

CCCCN(CCCC)CCCC [tributylamine] + Cc1cccc(C)c1
mass density [kg/m3]
Conditions	293.15 K	298.15 K	303.15 K	313.15 K	323.15 K	333.15 K
x1 = 0.0803	851.21 ± 0.24	846.99 ± 0.24	842.76 ± 0.24	834.27 ± 0.24	825.72 ± 0.24	817.11 ± 0.24
x1 = 0.1564	840.57 ± 0.24	836.42 ± 0.24	832.26 ± 0.24	823.89 ± 0.24	815.48 ± 0.24	806.98 ± 0.24
x1 = 0.2405	830.31 ± 0.24	826.21 ± 0.24	822.11 ± 0.24	813.87 ± 0.24	805.59 ± 0.24	797.24 ± 0.24
x1 = 0.3223	821.61 ± 0.24	817.57 ± 0.24	813.53 ± 0.24	805.4 ± 0.24	797.23 ± 0.24	788.99 ± 0.24
x1 = 0.3983	814.42 ± 0.24	810.43 ± 0.24	806.43 ± 0.24	798.4 ± 0.24	790.32 ± 0.24	782.19 ± 0.24
x1 = 0.4784	807.64 ± 0.24	803.69 ± 0.24	799.74 ± 0.24	791.81 ± 0.24	783.83 ± 0.24	775.79 ± 0.24
x1 = 0.5497	802.22 ± 0.24	798.31 ± 0.24	794.4 ± 0.24	786.54 ± 0.24	778.64 ± 0.24	770.68 ± 0.24
x1 = 0.6375	796.16 ± 0.24	792.3 ± 0.24	788.42 ± 0.24	780.65 ± 0.24	772.84 ± 0.24	764.97 ± 0.24
x1 = 0.7175	791.21 ± 0.24	787.38 ± 0.24	783.55 ± 0.24	775.85 ± 0.24	768.1 ± 0.24	760.32 ± 0.24
x1 = 0.7958	786.77 ± 0.24	782.98 ± 0.24	779.18 ± 0.24	771.54 ± 0.24	763.87 ± 0.24	756.15 ± 0.24
x1 = 0.8823	782.31 ± 0.24	778.55 ± 0.24	774.78 ± 0.24	767.21 ± 0.24	759.6 ± 0.24	751.95 ± 0.24
x1 = 0.9616	778.58 ± 0.24	774.84 ± 0.24	771.1 ± 0.24	763.6 ± 0.24	756.05 ± 0.24	748.45 ± 0.24
